Reference: publication PMC8412337, “Alpha-single chains of collagen type VI inhibit the fibrogenic effects of triple helical collagen VI in hepatic stellate cells” (PLoS ONE, 2021)

Key:
CFSC = assay: Fibrosis-associated gene expression, quantitative real-time PCR; format: cell-based, rat
Description: 30 mg/l CVI, 133 mg/l of the monomeric alpha chains of CVI and/or TGF-β (2 ng/ml) were added after 24 h. […] Reverse transcribed complementary DNA templates were amplified by quantitative real-time polymerase chain reaction (PCR; Roche Diagnostics, Mannheim, Germany) using fluorogenic probes labeled with 6-carboxy-fluorescein and 6-carboxy-tetramethylrhodamin (Sigma- Genosys, Steinheim, Germany) and primer pairs (Invitrogen, Karlsruhe, Germany) specific for fibrosis-associated genes (for sequences see S2 Table). Gene expressions were normalized to glyceraldehyde phosphate dehydrogenase (GAPDH).

CFSC (rat HSC cell line) = assay: [3H]-thymidine incorporation, de-novo DNA synthesis; format: cell-based; set-up: proliferative effect of reconstituted CVI after denaturation and refolding: dose or concentration left out as unconfirmed
Description: Immediately before use, guanidine hydrochloride (6 mol/l) was cleared over night by activated charcoal (Merck, Darmstadt, Germany) and adjusted to pH 8.0 by adding 50 mmol/l tris(hydroxymethyl)aminomethane (Tris). Freeze dried CVI (10 mg/ml) was mixed with 1 ml Tris-buffered guanidine-hydrochloride, incubated at room temperature for 1 h with frequent thorough vortex followed by 1 h at 37°C. The buffer from the clear supernatant after centrifugation (10.000 x g, 10 min, 4°C) was replaced for 150 mmol/l HAc by gelfiltration (Sephadex-G25; GE Healthcare, Munich, Germany). This procedure regains the biological activity of CVI on CFSC (S1 Fig).
5x10^3CFSC in 100 μl 10% FBS were seeded into a 96-well flat-bottom tissue culture plate (Nunc, Roskilde, Denmark). After 24 hours, medium was completely removed, and cells were rinsed with 200 μl phosphate-buffered saline and 100 μl standard medium containing only 0.25% FBS were added. Cells were cultured for additional 24 h prior to treatment. Synchronized microcultures in 96-well plates were treated for 2 hours in reduction medium. […] [^3H]-thymidine incorporation was measured as described before. […] After neutralization with 800 mmol/l HCl, lysates were collected to a glassfibre mat and the de-novo DNA synthesis was assessed by liquid scintillation (LKB Wallac, Bromma, Sweden) and the radioactive decay was counted (for) a minute (cpm).

[1] = test system: Bax and Bcl-2 in activated HSCs; assay: Western-blot analysis of Bax and Bcl-2; format: cell-based, rat; settings: densitometry, three independent experiments
Description: Dislodged cells were centrifuged at 800 x g/10 min and lysed with 100 μl lysis buffer. The protein concentration was determined using NanoOrange® Protein Quantitation Kit (Life Technologies) according to the manufacturer’s instructions. Briefly, protein solutions were mixed with the diluted NanoOrange reagent in 1.5 ml polypropylene tubes and heated at 95°C for 10 min in a thermomixer (Peqlab, Erlangen, Germany). Tubes were centrifuged and 200 μl of each sample were transferred to a black 96 well flat-bottom plate (Greiner BioOne, Frickenhausen, Germany). The emitted fluorescence was assessed at 570 nm in a SpectraMax Gemini EM (Molecular Devices, Biberach an der Riß, Germany). Protein concentrations were calculated from a bovine serum albumin standard curve. Equivalent amounts (10–50 μg) of protein were used in […]. Sample buffer (1:1) was added and the aliquots (20 μl final volume) were boiled for 5 min and subjected to 12% SDS-PAGE. After blocking for 1 h at room temperature in 10 mmol Tris-HCl, pH 7.5, 100 mmol NaCl, containing 0.1% Tween 20 and 3% bovine serum albumine (BSA), nitrocellulose-membranes were incubated either with polyclonal rabbit anti-rat antibodies to Bax (1:1000, sc-493), Bcl-2 (1:1000, sc783, both Santa Cruz, Santa Cruz, USA), α-actin (1:4000, A2547, Sigma) or β-actin (1:10,000, A5441, Sigma). Membranes were then washed in 10 mmol Tris-HCl, 100 mmol NaCl, 0.1% Tween 20, pH 7.5, and incubated with anti-rabbit IgG coupled to peroxidase (1:1000, A4416, Sigma) for 1 h at room temperature or directly developed (RC20H). Bands were detected with the ECL chemiluminescence reagent (Amersham-Pharmacia, Freiburg, Germany). After stripping in 0.1 M glycin-HCl, pH 2, for 20 min at room temperature, membranes were reprobed with appropriate primary and secondary antibodies. Band intensities were analyzed by densitometry and normalized to β-actin.

**Q.** What does the source list for “CVI: Human collagen VI isolated from placentas by pepsin digestion; triple helical, soluble”?
**A.** kinetics of CI expression compared with TGF-β (CFSC; CFSC, medium containing 0.2% FBS, S3 Fig): slightly decreased and delayed; αSMA, CI and TGF-β expression (CFSC; serum-starved CFSC, 30 mg/l CVI, 24 h, qPCR normalized to GAPDH): potently induced; reduction of the expression of MMP-3 (CFSC; serum-starved CFSC, 24 h, TGF-β 2 ng/ml, CVI 30 mg/l, qPCR normalized to GAPDH): only slightly reduced; expression of TIMP-1 (CFSC; serum-starved CFSC, 24 h, qPCR normalized to GAPDH): stimulated the expression of TIMP-1; de-novo DNA synthesis ([3H]-thymidine incorporation) (CFSC (rat HSC cell line); 24 h, n = three independent experiments): induced a comparable increase in de-novo DNA synthesis; proliferative effect of reconstituted CVI after denaturation and refolding (CFSC (rat HSC cell line); three independent experiments (S1 Fig)): regains its biological activity; Bax to Bcl-2 ratio ([1]; 24 hours culture after serum starvation): 1.0; Bax protein level, fold lower compared to the medium or CI group ([1]; 24 hours, p<0.05): 6-7 fold
